For assay [1], the system named is Staphylococcus aureus. The experiment in a line: Antibacterial activity against Staphylococcus aureus MTCC 96 at 100 ug incubated for 24 hrs under dark condition by agar well diffusion method. The format is functional. The following applies: MTCC 96, 24 h, read-out: IZ. For orientation: Agar diffusion results depend on both activity and mobility in agar.
In assay [2] the test system is Staphylococcus aureus. The experiment in a line: Antibacterial activity against Staphylococcus aureus MTCC 96 incubated for 24 hrs under dark condition by microwell dilution method. It is filed as functional. The following applies: MTCC 96, 24 h.
Assay [3] concerns Bacillus subtilis. The experiment in a line: Antibacterial activity against Bacillus subtilis MTCC 121 at 100 ug incubated for 24 hrs under dark condition by agar well diffusion method. The format is functional. To be noted: MTCC 121, 24 h, read-out: IZ.
Assay [4] deals with Bacillus subtilis. The experiment in a line: Antibacterial activity against Bacillus subtilis MTCC 121 incubated for 24 hrs under dark condition by microwell dilution method. The format is functional. The following applies: MTCC 121, 24 h.
Assay [5] has as its system Escherichia coli. The experiment in a line: Antibacterial activity against Escherichia coli MTCC 1652 at 100 ug incubated for 24 hrs under dark condition by agar well diffusion method. It is filed as functional. The following applies: MTCC 1652, 24 h, read-out: IZ.
Assay [6] has as its system Escherichia coli. The experiment in a line: Antibacterial activity against Escherichia coli MTCC 1652 incubated for 24 hrs under dark condition by microwell dilution method. The format is functional. To be noted: MTCC 1652, 24 h.
The subject of assay [7] is Pseudomonas aeruginosa. The experiment in a line: Antibacterial activity against Pseudomonas aeruginosa MTCC 102 at 100 ug incubated for 24 hrs under dark condition by agar well diffusion method. The format is functional. To be noted: MTCC 102, 24 h, read-out: IZ.
Assay [8] has as its system Pseudomonas aeruginosa. The experiment in a line: Antibacterial activity against Pseudomonas aeruginosa MTCC 102 incubated for 24 hrs under dark condition by microwell dilution method. The format is functional. To be noted: MTCC 102, 24 h.
Assay [9] is described as follows: Antioxidant activity assessed as DPPH radical scavenging activity after 20 mins by UV/VIS Spectrophotometric method. It is filed as functional. On the technique in general: The DPPH test is a chemical assay of radical scavenging.
Assay [10] can be described thus: Antioxidant activity assessed as assessed as ferric ion reducing activity by measuring absorbance at 700 nm at 20 ug/ml after 20 mins by spectrophotometric method. The format is functional.
Assay [11] is described as follows: Antioxidant activity assessed as total antioxidant capacity measured as ascorbic acid equivalents at 20 ug/ml after 90 mins by phosphomolybdenum method. The format is functional.
Another assay concerns MCF7. The experiment in a line: Cytotoxicity against human MCF7 cells assessed as decrease in cell viability after 48 hrs by MTT assay. The format is functional, cell-based. To be noted: MCF7, 48 h. On the technique in general: Tetrazolium assays rely on reduction of a dye to a coloured formazan, in cell work by metabolically active cells.
For the next assay, the system named is A549. The experiment in a line: Cytotoxicity against human A549 cells assessed as decrease in cell viability after 48 hrs by MTT assay. The format is functional, cell-based. To be noted: A549, 48 h.
Assay [12] is described as follows: Antioxidant activity assessed as assessed as ferric ion reducing activity by measuring absorbance at 700 nm at 60 ug/ml after 20 mins by spectrophotometric method. It is filed as functional.
Assay [13] is described as follows: Antioxidant activity assessed as assessed as ferric ion reducing activity by measuring absorbance at 700 nm at 100 ug/ml after 20 mins by spectrophotometric method. It is filed as functional.
Assay [14] in a line: Antioxidant activity assessed as total antioxidant capacity measured as ascorbic acid equivalents at 60 ug/ml after 90 mins by phosphomolybdenum method. It is filed as functional.
Assay [15] in a line: Antioxidant activity assessed as total antioxidant capacity measured as ascorbic acid equivalents at 100 ug/ml after 90 mins by phosphomolybdenum method. It is filed as functional.

The structures appear in SMILES notation. In brackets after ≈: the same amount, converted by molar mass.

`Cc1ccc(C2C(C#N)=C(N)OC3=C2CNc2c3cccc2[N+](=O)[O-])cc1` (stereo not given): the zone of inhibition at 100 µg/disc is 13 mm in the assay on Staphylococcus aureus [1], 12 mm with Bacillus subtilis [3], 18 mm with Escherichia coli [5] and 15 mm in the assay on Pseudomonas aeruginosa [7]. Further, the MIC with Staphylococcus aureus [2] worked out at 55 µg/mL (≈ 153 µM); against Bacillus subtilis [4], 50 µg/mL (≈ 139 µM); in the assay on Escherichia coli [6], 25.5 µg/mL (≈ 70.8 µM); against Pseudomonas aeruginosa [8], 55.5 µg/mL (≈ 154 µM). For the same compound, the IC50 in assay [9] worked out at 183.1 µg/mL (≈ 508 µM); with MCF7 it was 34.1 µM; in the assay with A549, 56.3 µM. Also, the OD in assay [10] came to 0.09; in [12] it was 0.111; in [13], 0.163. In addition, the Activity in [11] is 1.82 µgequiv/ml; in [14], 4.43 µgequiv/ml; in [15], 8.15 µgequiv/ml.

As for `COc1ccc(C2C(C#N)=C(N)OC3=C2CNc2c3cccc2[N+](=O)[O-])c(OC)c1` (stereo not given), the zone of inhibition at 100 µg/disc with Staphylococcus aureus [1] was determined as 14 mm; in the assay on Bacillus subtilis [3] it was 15 mm; in the assay with Escherichia coli [5] it was 15 mm; in the assay on Pseudomonas aeruginosa [7], 13 mm. In addition, the MIC against Staphylococcus aureus [2] was found to be 40 µg/mL (≈ 98.4 µM); in the assay on Bacillus subtilis [4], 20 µg/mL (≈ 49.2 µM); in the assay on Escherichia coli [6], 42.5 µg/mL (≈ 105 µM); in the assay with Pseudomonas aeruginosa [8], 150 µg/mL (≈ 369 µM). Besides, the IC50 in assay [9] was 122.13 µg/mL (≈ 301 µM); with MCF7, 51.2 µM; with A549, 44.6 µM. Further, the OD in [10] came out at 0.08; in assay [12], 0.112; in assay [13], 0.162. In addition, the Activity stood at 4.79 µgequiv/ml in [11], 9.89 µgequiv/ml in assay [14] and 14.2 µgequiv/ml in [15].

Regarding `N#CC1=C(N)OC2=C(CNc3c2cccc3[N+](=O)[O-])C1c1ccc(Cl)cc1` (stereo not given), the zone of inhibition at 100 µg/disc with Staphylococcus aureus [1] was 21 mm; with Bacillus subtilis [3], 24 mm; with Escherichia coli [5] it was 21 mm; in the assay on Pseudomonas aeruginosa [7] it was 18 mm. Besides, the MIC in the assay with Staphylococcus aureus [2] came to 10 µg/mL (≈ 26.3 µM); in the assay with Bacillus subtilis [4], 10 µg/mL (≈ 26.3 µM); against Escherichia coli [6] it was 17 µg/mL (≈ 44.6 µM); in the assay on Pseudomonas aeruginosa [8] it was 55.5 µg/mL (≈ 146 µM). The IC50 worked out at 118.03 µg/mL (≈ 310 µM) in assay [9], 22.7 µM in the assay with MCF7 and 28.1 µM with A549. In addition, the results for the OD in assay [10], in assay [12] and in assay [13] were 0.088, 0.125 and 0.189, respectively. Further, the Activity in assay [11] amounted to 0.59 µgequiv/ml; in assay [14], 1.06 µgequiv/ml; in assay [15] it was 2.57 µgequiv/ml.

As for `O=[N+]([O-])c1cccc2c1NCC1C2=NN(c2ccccc2)C1c1ccc(Cl)cc1` (stereo not given), the zone of inhibition at 100 µg/disc is 17 mm in the assay on Staphylococcus aureus [1], 16 mm in the assay with Bacillus subtilis [3], 17 mm in the assay on Escherichia coli [5] and 13 mm in the assay with Pseudomonas aeruginosa [7]. Also, the MIC amounted to 15 µg/mL (≈ 37.1 µM) with Staphylococcus aureus [2], 15 µg/mL (≈ 37.1 µM) with Bacillus subtilis [4], 34 µg/mL (≈ 84 µM) against Escherichia coli [6] and 100 µg/mL (≈ 247 µM) in the assay on Pseudomonas aeruginosa [8]. Also, the 50% inhibitory concentration (IC50) in assay [9] is 202.18 µg/mL (≈ 499 µM); with MCF7 it was 41.4 µM; in the assay on A549, 28.7 µM. Besides, the OD in [10] was found to be 0.082; in [12], 0.09; in assay [13] it was 0.101. In addition, the Activity in assay [11] turned out to be 4.12 µgequiv/ml; in assay [14] it was 6.17 µgequiv/ml; in assay [15] it was 10.4 µgequiv/ml.

In the case of `CC1(C)S[C@@H]2[C@H](NC(=O)[C@H](N)c3ccccc3)C(=O)N2[C@H]1C(=O)O` [AMPICILLIN], the zone of inhibition at 100 µg/disc is 24 mm in the assay on Staphylococcus aureus [1], 30 mm in the assay with Bacillus subtilis [3], 24 mm in the assay with Escherichia coli [5] and 22 mm in the assay with Pseudomonas aeruginosa [7]. Besides, the MIC against Staphylococcus aureus [2] is 2.5 µg/mL (≈ 7.15 µM); against Bacillus subtilis [4], 2.5 µg/mL (≈ 7.15 µM); against Escherichia coli [6] it was 8.5 µg/mL (≈ 24.3 µM); in the assay with Pseudomonas aeruginosa [8], 18.5 µg/mL (≈ 52.9 µM).

With `Cc1cc(C(C)(C)C)c(O)c(C(C)(C)C)c1`, the OD in assay [10] amounted to 0.329; in assay [12], 0.448; in [13], 0.612.

With `O=C1O[C@H]([C@@H](O)CO)C(O)=C1O` [ASCORBIC ACID], in [9], the IC50 stood at 28.02 µg/mL (≈ 159 µM).

Usually MIC stands for the least concentration at which growth counts as inhibited. A high value points to a less susceptible organism. A word on the IC50: it is the concentration that gives 50% inhibition.

The values above are taken from ChEMBL document CHEMBL4004883, “Biologically active perspective synthesis of heteroannulated 8-nitroquinolines with green chemistry approach” (Bioorg Med Chem Lett, 2017).
